Measured values reported in patent US20260317324A1, “BIFUNCTIONAL COMPOUNDS FOR DEGRADING BRAF VIA UBIQUITIN PROTEOSOME PATHWAY” (Nurix Therapeutics, Inc., priority 2023, published 2026).

Columns and labels:
Format in all cases: cell-based
BRAF D594G = biological target: T1, BRAF D594G (Homo sapiens, UniProt P15056, D594G); assay: BRAF HiBiT degradation assay, C-terminal HiBiT-tagged BRAF D594G overexpressed in HCT-116 BRAF−/− cells (clone 63), Nano-Glo HiBiT Lytic assay
T1 construct: Horizon Discovery (HCT-116 BRAF−/− cells); host or cells: HCT-116 BRAF−/− cells, clone 63, lentiviral transduction
T1 sequence (P15056 whole entry D594G): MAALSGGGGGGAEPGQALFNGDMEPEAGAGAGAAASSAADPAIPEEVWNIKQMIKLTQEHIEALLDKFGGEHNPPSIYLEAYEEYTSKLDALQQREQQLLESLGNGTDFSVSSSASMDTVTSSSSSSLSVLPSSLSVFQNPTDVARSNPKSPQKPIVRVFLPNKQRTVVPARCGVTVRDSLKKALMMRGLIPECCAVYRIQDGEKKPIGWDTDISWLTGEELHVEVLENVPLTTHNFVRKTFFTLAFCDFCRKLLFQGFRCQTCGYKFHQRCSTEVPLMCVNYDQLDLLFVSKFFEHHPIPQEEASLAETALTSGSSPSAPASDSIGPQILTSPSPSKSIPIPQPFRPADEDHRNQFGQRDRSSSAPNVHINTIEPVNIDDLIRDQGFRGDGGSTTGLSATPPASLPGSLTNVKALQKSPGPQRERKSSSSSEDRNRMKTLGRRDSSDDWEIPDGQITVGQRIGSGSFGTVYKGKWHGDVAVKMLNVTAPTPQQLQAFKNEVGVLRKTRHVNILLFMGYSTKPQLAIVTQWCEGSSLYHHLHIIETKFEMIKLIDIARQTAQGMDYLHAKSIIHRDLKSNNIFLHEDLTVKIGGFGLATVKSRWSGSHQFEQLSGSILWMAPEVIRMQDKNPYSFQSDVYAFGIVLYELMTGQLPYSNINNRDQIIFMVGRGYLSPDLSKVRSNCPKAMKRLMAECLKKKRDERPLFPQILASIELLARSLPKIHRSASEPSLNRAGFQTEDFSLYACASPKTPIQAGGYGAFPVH
In short: (§1)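 First, the stable HiBiT-tagged cells were plated and incubated for 24 h. Next, compound was added in duplicate as an 11-point series with a 1 μM top concentration. Lytic detection followed, with DMSO-treated parental cells used for background. Finally, DC50 and Obs. Dmax relative to DMSO were derived from the % protein remaining curves.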

BRAF G469A = biological target: T2, BRAF G469A (Homo sapiens, UniProt P15056, G469A); assay: BRAF HiBiT degradation assay, C-terminal HiBiT-tagged BRAF G469A overexpressed in HCT-116 BRAF−/− cells (clone 34), Nano-Glo HiBiT Lytic assay
T2 construct: Horizon Discovery (HCT-116 BRAF−/− cells); host or cells: HCT-116 BRAF−/− cells, clone 34, lentiviral transduction
T2 sequence (P15056 whole entry G469A): as the sequence (P15056 whole entry D594G) above, with G469A, G594D counted along it
In short: as §1

BRAF V600E = biological target: T3, BRAF V600E (Homo sapiens, UniProt P15056, V600E); assay: BRAF HiBiT degradation assay, C-terminal HiBiT-tagged BRAF V600E A375 cells (clone 1F10), Nano-Glo HiBiT Lytic assay; settings: for Dmax: A-375
T3 construct: endogenous C-terminal HiBiT fusion tag on BRAF V600E allele; endogenous in cells; host or cells: A375 clone 1F10 (CRISPR-Cas9 knock-in of the HiBiT tag; parental A375 from ATCC)
T3 sequence (P15056 whole entry V600E, the tested form may be a part): as the sequence (P15056 whole entry D594G) above, with G594D, V600E counted along it
In short: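 Degradation is measured as loss of HiBiT signal from BRAF V600E tagged at its native locus in A375 cells. Doses span 1 μM to 0.01 nM in half-log steps, in duplicate. Percent remaining is calculated against DMSO controls after subtracting untagged A375 background, and curve fitting yields DC50 and observed Dmax.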

BRAF G466V = biological target: T4, BRAF G466V (Homo sapiens, UniProt P15056, G466V); assay: BRAF HiBiT degradation assay, C-terminal HiBiT-tagged BRAF G466V overexpressed in HCT-116 BRAF−/− cells (clone 8), Nano-Glo HiBiT Lytic assay
T4 construct: Horizon Discovery (HCT-116 BRAF−/− cells); host or cells: HCT-116 BRAF−/− cells, clone 8, lentiviral transduction
T4 sequence (P15056 whole entry G466V): as the sequence (P15056 whole entry D594G) above, with G466V, G594D counted along it
In short: as §1

[1] = BRAF D594G, DC50 at 50%: fitted conc. at Y=50
[2] = HCT-116, BRAF D594G, percentage protein degraded at maximal compound effect relative to DMSO
[3] = Class 2, BRAF G469A, DC50 at 50%: fitted conc. at Y=50
[4] = HCT-116, Class 2, BRAF G469A, percentage protein degraded at maximal compound effect relative to DMSO
[5] = A375 (BRAF V600E), DC50 at 50%: fitted conc. at Y=50
[6] = A375 (BRAF V600E), percentage protein degraded at maximal compound effect relative to DMSO
[7] = BRAF G466V, DC50 at 50%: fitted conc. at Y=50
[8] = HCT-116, BRAF G466V, percentage protein degraded at maximal compound effect relative to DMSO
[9] = BRAF D594G (Class 3), HCT-116 BRAF−/− cells, DC50 at 50% degradation
[10] = BRAF D594G (Class 3), HCT-116 BRAF−/− cells, observed Dmax relative to DMSO control
[11] = BRAF G469A (Class 2), HCT-116 BRAF−/− cells, DC50 at 50% degradation
[12] = BRAF G469A (Class 2), HCT-116 BRAF−/− cells, observed Dmax relative to DMSO control
[13] = A375 (BRAF V600E, Class 1), DC50 at 50% degradation
[14] = A375 (BRAF V600E, Class 1), observed Dmax, % protein degraded relative to DMSO control
[15] = BRAF G466V (Class 3), HCT-116 BRAF−/− cells, DC50 at 50% degradation
[16] = BRAF G466V (Class 3), HCT-116 BRAF−/− cells, observed Dmax relative to DMSO control

SMILES | DC50 (BRAF D594G; [1]) [nM] | Dmax (BRAF D594G; [2]) [%] | DC50 (BRAF G469A; [3]) [nM] | Dmax (BRAF G469A; [4]) [%] | DC50 (BRAF V600E; [5]) [nM] | Dmax (BRAF V600E; [6]) [%] | DC50 (BRAF G466V; [7]) [nM] | Dmax (BRAF G466V; [8]) [%] | DC50 (BRAF D594G; [9]) [nM] | Dmax (BRAF D594G; [10]) [%] | DC50 (BRAF G469A; [11]) [nM] | Dmax (BRAF G469A; [12]) [%] | DC50 (BRAF V600E; [13]) [nM] | Dmax (BRAF V600E; [14]) [%] | DC50 (BRAF G466V; [15]) [nM] | Dmax (BRAF G466V; [16]) [%]
CCCS(=O)(=O)Nc1cccc(-c2nc(C3CCN(C(=O)C4CCN(C(=O)C5CCN(c6ccc(C7CCC(=O)NC7=O)cn6)CC5)CC4)CC3)sc2-c2ccnc(NC)n2)c1F (racemic) [Compound 212, Rac-N-[3-(2-{1-[1-(1-{5-[(3R)-2,6-dioxopiperidin-3-yl]pyridin-2-yl}piperidine-4-carbonyl)piperidine-4-carbonyl]piperidin-4-yl}-5-[2-(methylamino)pyrimidin-4-yl]-1,3-thiazol-4-yl)-2-fluorophenyl]propane-1-sulfonamide] | < 10 | 30 to 70 | 10 to 50 | 30 to 70 | < 10 | > 70 | < 10 | 30 to 70 |  |  |  |  |  |  |  | 
O=C1CCN(c2ccc(N3CCC(CN4CCN(c5ccc(-n6cc(-c7cc(Cl)cc(NS(=O)(=O)N8CC[C@@H](F)C8)c7F)c(-c7ccncc7)n6)c(F)c5)CC4)CC3)nc2)C(=O)N1 [Compound 371, (3R)—N-[5-chloro-3-(1-{4-[4-({1-[5-(2,4-dioxo-1,3-diazinan-1-yl)pyridin-2-yl]piperidin-4-yl}methyl)piperazin-1-yl]-2-fluorophenyl}-3-(pyridin-4-yl)-1H-pyrazol-4-yl)-2-fluorophenyl]-3-fluoropyrrolidine-1-sulfonamide] |  |  |  |  |  |  |  |  | < 10 | 30 to 70 | < 10 | 30 to 70 | < 10 | > 70 | < 10 | 30 to 70
CCCS(=O)(=O)Nc1cccc(-c2nc(C(C)(C)C)sc2-c2ccnc(Nc3ccc(C4CCN(CC5CCN(c6ccc(C7CCC(=O)NC7=O)cc6)CC5)CC4)cc3)n2)c1F (racemic) [Compound 167, Rac-N-[3-(2-tert-butyl-5-{2-[(4-{1-[(1-{4-[(3R)-2,6-dioxopiperidin-3-yl]phenyl}piperidin-4-yl)methyl]piperidin-4-yl}phenyl)amino]pyrimidin-4-yl}-1,3-thiazol-4-yl)-2-fluorophenyl]propane-1-sulfonamide] | > 500 | 30 to 70 | > 500 | 30 to 70 | 10 to 50 | 30 to 70 | > 500 | 30 to 70 |  |  |  |  |  |  |  | 
O=C1CC[C@H](c2ccc(N3CCC(CN4CCN(c5ccc(-n6cc(-c7cc(Cl)cc(NS(=O)(=O)N8CCCC8)c7F)c(-c7ccncc7)n6)c(F)c5)CC4)CC3)cc2)C(=O)N1 [Compound 281, N-{5-chloro-3-[1-(4-{4-[(1-{4-[(3R)-2,6-dioxopiperidin-3-yl]phenyl}piperidin-4-yl)methyl]piperazin-1-yl}-2-fluorophenyl)-3-(pyridin-4-yl)-1H-pyrazol-4-yl]-2-fluorophenyl}pyrrolidine-1-sulfonamide] |  |  |  |  |  |  |  |  | < 10 | 30 to 70 | 10 to 50 | 30 to 70 | < 10 | > 70 | < 10 | > 70
CCCS(=O)(=O)Nc1cc(Cl)cc(-c2cn(-c3ccc(N4CCN(CC5CCN(c6ccc([C@H]7CCC(=O)NC7=O)cc6)CC5)[C@H](C)C4)cc3)nc2-c2ccncc2)c1F [Compound 275, N-[5-chloro-3-(1-{4-[(3R)-4-[(1-{4-[(3R)-2,6-dioxopiperidin-3-yl]phenyl}piperidin-4-yl)methyl]-3-methylpiperazin-1-yl]phenyl}-3-(pyridin-4-yl)-1H-pyrazol-4-yl)-2-fluorophenyl]propane-1-sulfonamide] |  |  |  |  |  |  |  |  | < 10 | 30 to 70 | 10 to 50 | 30 to 70 | < 10 | > 70 | < 10 | > 70
O=C1CC[C@H](c2ccc(N3CCC(CN4CCCN(c5ccc(-n6cc(-c7cc(Cl)cc(NS(=O)(=O)N8CCCC8)c7F)c(-c7ccncc7)n6)c(F)c5)CC4)CC3)cc2)C(=O)N1 [Compound 346, N-{5-chloro-3-[1-(4-{4-[(1-{4-[(3R)-2,6-dioxopiperidin-3-yl]phenyl}piperidin-4-yl)methyl]-1,4-diazepan-1-yl}-2-fluorophenyl)-3-(pyridin-4-yl)-1H-pyrazol-4-yl]-2-fluorophenyl}pyrrolidine-1-sulfonamide] |  |  |  |  |  |  |  |  | > 500 | < 30 | > 500 | < 30 | < 10 | > 70 | > 500 | 30 to 70
CCCS(=O)(=O)Nc1cccc(-c2nc(C(C)(C)C)sc2-c2ccnc(Nc3cnn(CC4CCN(C(=O)[C@H]5CC[C@H](Oc6ccc(C7CCC(=O)NC7=O)cc6)CC5)CC4)c3)n2)c1F (mixture of isomers) [Compound 118, N-{3-[2-tert-butyl-5-(2-{[1-({1-[(1r,4r)-4-{4-[(3RS)-2,6-dioxopiperidin-3-yl]phenoxy}cyclohexanecarbonyl]piperidin-4-yl}methyl)-1H-pyrazol-4-yl]amino}pyrimidin-4-yl)-1,3-thiazol-4-yl]-2-fluorophenyl}propane-1-sulfonamide] | > 500 | 30 to 70 | > 500 | < 30 | < 10 | > 70 | > 500 | < 30 |  |  |  |  |  |  |  | 
C[C@@H]1CN(c2ccc(-n3cc(-c4cc(Cl)cc(NS(=O)(=O)N5CCCC5)c4F)c(-c4ccncc4)n3)nc2)CCN1CC1CCN(c2ccc([C@H]3CCC(=O)NC3=O)cn2)CC1 [Compound 325, N-[5-chloro-3-(1-{5-[(3R)-4-[(1-{5-[(3R)-2,6-dioxopiperidin-3-yl]pyridin-2-yl}piperidin-4-yl)methyl]-3-methylpiperazin-1-yl]pyridin-2-yl}-3-(pyridin-4-yl)-1H-pyrazol-4-yl)-2-fluorophenyl]pyrrolidine-1-sulfonamide] |  |  |  |  |  |  |  |  | < 10 | > 70 | 10 to 50 | > 70 | < 10 | > 70 | < 10 | > 70
CCCS(=O)(=O)Nc1cccc(-c2nc(C3CCN(C(=O)C4(C)CCN(C(=O)C5CCN(c6ccc(C7CCC(=O)NC7=O)cn6)CC5)CC4)CC3)sc2-c2ccncn2)c1F (racemic) [Compound 181, Rac-N-[3-(2-{1-[1-(1-{5-[(3R)-2,6-dioxopiperidin-3-yl]pyridin-2-yl}piperidine-4-carbonyl)-4-methylpiperidine-4-carbonyl]piperidin-4-yl}-5-(pyrimidin-4-yl)-1,3-thiazol-4-yl)-2-fluorophenyl]propane-1-sulfonamide] | < 10 | > 70 | > 500 | 30 to 70 | < 10 | > 70 | < 10 | > 70 |  |  |  |  |  |  |  | 
O=C1CC[C@H](c2ccc(N3CCC(CN4CCN(c5ccc(-n6cc(-c7cc(Cl)cc(NS(=O)(=O)N8CC(F)C8)c7F)c(-c7ccncc7)n6)cc5)CC4)CC3)nc2)C(=O)N1 [Compound 331, N-{5-chloro-3-[1-(4-{4-[(1-{5-[(3R)-2,6-dioxopiperidin-3-yl]pyridin-2-yl}piperidin-4-yl)methyl]piperazin-1-yl}phenyl)-3-(pyridin-4-yl)-1H-pyrazol-4-yl]-2-fluorophenyl}-3-fluoroazetidine-1-sulfonamide] |  |  |  |  |  |  |  |  | < 10 | 30 to 70 | < 10 | > 70 | < 10 | > 70 | < 10 | > 70
